ChEMBL document CHEMBL1909046, “DrugMatrix in vitro pharmacology data”

Assays:
[1] = target: T1, Polyunsaturated fatty acid lipoxygenase ALOX15 (Oryctolagus cuniculus, UniProt P12530); experiment: biochemical; format: tissue-based, Reticulocytes; settings: reticulocytes;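 note: inhibition of 15-lipoxygenase enzyme activity measured with linoleic acid as the substrate; in other assays of this panel Not Active means under 50% inhibition at 10 µM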
T1 sequence (P12530 whole entry): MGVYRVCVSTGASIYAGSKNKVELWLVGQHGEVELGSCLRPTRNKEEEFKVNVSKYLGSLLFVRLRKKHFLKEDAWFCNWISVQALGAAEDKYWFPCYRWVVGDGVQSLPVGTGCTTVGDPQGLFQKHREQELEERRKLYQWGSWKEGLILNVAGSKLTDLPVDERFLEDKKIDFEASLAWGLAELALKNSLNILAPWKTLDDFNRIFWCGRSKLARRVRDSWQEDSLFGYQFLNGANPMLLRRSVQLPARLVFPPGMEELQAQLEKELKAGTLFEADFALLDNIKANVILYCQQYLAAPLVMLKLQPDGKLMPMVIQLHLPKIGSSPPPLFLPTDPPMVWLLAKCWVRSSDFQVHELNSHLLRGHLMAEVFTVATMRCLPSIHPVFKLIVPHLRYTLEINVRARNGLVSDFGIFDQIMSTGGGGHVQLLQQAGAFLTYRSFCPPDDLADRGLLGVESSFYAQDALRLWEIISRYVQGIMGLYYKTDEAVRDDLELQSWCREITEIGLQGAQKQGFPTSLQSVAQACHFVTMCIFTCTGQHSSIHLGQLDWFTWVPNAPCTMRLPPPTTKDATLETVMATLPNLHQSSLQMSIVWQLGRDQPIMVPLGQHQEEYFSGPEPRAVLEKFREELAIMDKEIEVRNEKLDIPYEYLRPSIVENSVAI

[2] = target: T2, C-C chemokine receptor type 4 (Homo sapiens, UniProt P51679); format: cell membranes, Membrane; settings: chem-1; note: in other assays of this panel Not Active means under 50% inhibition at 10 µM
T2 sequence (P51679 whole entry): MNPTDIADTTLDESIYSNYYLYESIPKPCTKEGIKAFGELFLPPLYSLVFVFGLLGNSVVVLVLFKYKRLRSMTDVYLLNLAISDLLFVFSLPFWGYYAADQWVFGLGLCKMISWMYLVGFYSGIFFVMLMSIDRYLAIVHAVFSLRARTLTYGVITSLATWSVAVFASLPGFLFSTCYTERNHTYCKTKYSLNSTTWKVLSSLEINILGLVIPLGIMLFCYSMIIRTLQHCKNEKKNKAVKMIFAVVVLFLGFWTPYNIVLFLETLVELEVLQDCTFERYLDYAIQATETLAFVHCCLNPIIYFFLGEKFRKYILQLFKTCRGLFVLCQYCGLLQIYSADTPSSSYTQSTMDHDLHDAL

Mu-type opioid receptor = Mu-type opioid receptor (Homo sapiens, UniProt P35372); experiment: DRUGMATRIX: Opiate mu (OP3, MOP) radioligand binding (ligand: [3H] Diprenorphine); format: cell membranes, CHO-K1, Membrane; settings: cho-k1; Not Active = under 50% inhibition at 10 µM
Melanocortin receptor 5 = Melanocortin receptor 5 (Homo sapiens, UniProt P33032); format: cell membranes, HEK293, Membrane; settings: hek293; note: in other assays of this panel Not Active means under 50% inhibition at 10 µM
[3] = DRUGMATRIX: Phorbol Ester radioligand binding (ligand: [3H] PDBu); format: cell membranes, Mus musculus, ICR, Brain, Membrane; settings: Not Active = under 50% inhibition at 10 µM
[4] = target: T3, Cysteinyl leukotriene receptor 1 (Homo sapiens, UniProt Q9Y271); format: cell membranes, CHO-K1, Membrane; settings: cho-k1; note: in other assays of this panel Not Active means under 50% inhibition at 10 µM
T3 sequence (Q9Y271 whole entry): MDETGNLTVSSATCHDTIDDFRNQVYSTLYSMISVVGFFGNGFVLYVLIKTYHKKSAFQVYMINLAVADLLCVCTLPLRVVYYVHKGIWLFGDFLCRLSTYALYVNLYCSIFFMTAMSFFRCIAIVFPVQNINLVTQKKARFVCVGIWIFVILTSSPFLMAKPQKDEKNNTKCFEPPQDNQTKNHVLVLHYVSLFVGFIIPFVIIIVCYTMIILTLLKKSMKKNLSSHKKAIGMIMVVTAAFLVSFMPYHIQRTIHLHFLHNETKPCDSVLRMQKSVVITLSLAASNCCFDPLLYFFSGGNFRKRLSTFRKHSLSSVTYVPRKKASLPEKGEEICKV

[5] = target: Protein phosphatase 3 catalytic subunit alpha (Homo sapiens, UniProt Q08209); parameters: species or system Escherichia coli
[6] = target: T4, Nitric oxide synthase, inducible (Mus musculus, UniProt P29477); parameters: species or system Escherichia coli
T4 sequence (P29477 whole entry): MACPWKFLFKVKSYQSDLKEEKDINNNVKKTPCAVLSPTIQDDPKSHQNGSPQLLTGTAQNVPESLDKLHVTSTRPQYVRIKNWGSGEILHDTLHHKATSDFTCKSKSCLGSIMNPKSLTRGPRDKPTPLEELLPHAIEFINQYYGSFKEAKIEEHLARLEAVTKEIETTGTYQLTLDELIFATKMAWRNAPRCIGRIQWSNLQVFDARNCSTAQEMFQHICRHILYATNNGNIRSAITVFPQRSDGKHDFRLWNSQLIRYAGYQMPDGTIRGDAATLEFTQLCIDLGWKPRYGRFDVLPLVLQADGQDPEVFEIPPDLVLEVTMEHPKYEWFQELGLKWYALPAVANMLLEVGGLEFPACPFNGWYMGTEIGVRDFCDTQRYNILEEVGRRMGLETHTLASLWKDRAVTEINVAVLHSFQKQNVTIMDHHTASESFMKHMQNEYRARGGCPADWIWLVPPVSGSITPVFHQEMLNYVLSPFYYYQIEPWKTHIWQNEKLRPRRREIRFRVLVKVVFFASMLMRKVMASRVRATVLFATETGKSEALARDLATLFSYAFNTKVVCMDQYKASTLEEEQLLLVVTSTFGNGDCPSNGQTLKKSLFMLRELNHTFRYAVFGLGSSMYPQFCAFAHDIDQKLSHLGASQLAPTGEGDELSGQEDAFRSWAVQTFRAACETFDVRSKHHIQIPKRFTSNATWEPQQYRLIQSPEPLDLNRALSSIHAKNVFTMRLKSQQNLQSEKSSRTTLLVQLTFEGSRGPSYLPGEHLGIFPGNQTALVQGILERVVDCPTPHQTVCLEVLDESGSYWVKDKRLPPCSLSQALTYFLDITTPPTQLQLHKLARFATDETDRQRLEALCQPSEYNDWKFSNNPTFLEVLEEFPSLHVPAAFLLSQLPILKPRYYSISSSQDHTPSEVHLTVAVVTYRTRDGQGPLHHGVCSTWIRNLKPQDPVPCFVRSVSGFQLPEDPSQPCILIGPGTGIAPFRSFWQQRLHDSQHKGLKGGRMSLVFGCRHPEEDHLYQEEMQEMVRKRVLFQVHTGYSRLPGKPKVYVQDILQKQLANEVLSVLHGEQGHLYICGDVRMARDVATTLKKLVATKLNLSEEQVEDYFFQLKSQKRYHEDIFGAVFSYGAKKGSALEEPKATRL

[7] = DRUGMATRIX: Purinergic P2X radioligand binding (ligand: [3H] alpha, beta-Methylene-ATP); format: cell membranes, Oryctolagus cuniculus, New Zealand albino, Urinary bladder, Membrane; settings: Not Active = under 50% inhibition at 10 µM

Mu-type opioid receptor, sequence (P35372 whole entry): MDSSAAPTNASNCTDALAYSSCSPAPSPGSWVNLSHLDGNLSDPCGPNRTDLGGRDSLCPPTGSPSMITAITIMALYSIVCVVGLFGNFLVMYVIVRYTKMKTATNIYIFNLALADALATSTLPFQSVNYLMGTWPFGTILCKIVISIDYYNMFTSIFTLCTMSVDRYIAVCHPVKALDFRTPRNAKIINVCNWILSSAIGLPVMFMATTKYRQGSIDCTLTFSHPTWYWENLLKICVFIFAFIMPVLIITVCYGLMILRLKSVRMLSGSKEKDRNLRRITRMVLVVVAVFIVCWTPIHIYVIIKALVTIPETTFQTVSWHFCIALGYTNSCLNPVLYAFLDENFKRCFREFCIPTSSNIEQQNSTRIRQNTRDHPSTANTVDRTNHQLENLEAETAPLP
Melanocortin receptor 5, sequence (P33032 whole entry): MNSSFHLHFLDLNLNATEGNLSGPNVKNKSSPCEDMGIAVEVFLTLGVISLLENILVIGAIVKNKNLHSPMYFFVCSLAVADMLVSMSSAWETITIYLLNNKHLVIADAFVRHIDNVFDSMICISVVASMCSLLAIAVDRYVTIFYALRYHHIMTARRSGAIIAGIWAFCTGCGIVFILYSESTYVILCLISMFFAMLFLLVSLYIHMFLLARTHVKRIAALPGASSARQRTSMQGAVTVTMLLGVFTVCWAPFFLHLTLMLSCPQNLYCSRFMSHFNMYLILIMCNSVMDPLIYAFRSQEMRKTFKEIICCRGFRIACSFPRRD

Cc1[nH]cnc1CN1CCc2c(c3ccccc3n2C)C1=O [ALOSETRON]
Not Active: IC50 [1] | IC50 [2] | IC50 (Mu-type opioid receptor) | IC50 (Melanocortin receptor 5) | IC50 [3] | Ki [3] | IC50 [4] | IC50 [5] | IC50 [6] | IC50 [7] | Ki [7]

O=c1cc(-c2ccccc2)oc2c1ccc1ccccc12 [ALPHA-NAPHTHOFLAVONE]
Not Active: IC50 [1] | IC50 [2] | IC50 (Mu-type opioid receptor) | IC50 (Melanocortin receptor 5) | IC50 [3] | Ki [3] | IC50 [4] | IC50 [5] | IC50 [6] | IC50 [7] | Ki [7]

NCC[C@H](O)C(=O)N[C@@H]1C[C@H](N)[C@@H](O[C@H]2O[C@H](CN)[C@@H](O)[C@H](O)[C@H]2O)[C@H](O)[C@H]1O[C@H]1O[C@H](CO)[C@@H](O)[C@H](N)[C@H]1O [AMIKACIN]
Not Active: IC50 [1] | IC50 [2] | IC50 (Mu-type opioid receptor) | IC50 (Melanocortin receptor 5) | IC50 [3] | Ki [3] | IC50 [4] | IC50 [5] | IC50 [6] | IC50 [7] | Ki [7]

CC1(C)S[C@@H]2[C@H](NC(=O)[C@H](N)c3ccc(O)cc3)C(=O)N2[C@H]1C(=O)O [AMOXICILLIN]
Not Active: IC50 [1] | IC50 [2] | IC50 (Mu-type opioid receptor) | IC50 (Melanocortin receptor 5) | IC50 [3] | Ki [3] | IC50 [4] | IC50 [5] | IC50 [6] | IC50 [7] | Ki [7]

CCOC(=O)OC(C)OC1=C(C(=O)Nc2ccccn2)N(C)S(=O)(=O)c2ccccc21 (stereo not drawn) [AMPIROXICAM]
Not Active: IC50 [1] | IC50 [2] | IC50 (Mu-type opioid receptor) | IC50 (Melanocortin receptor 5) | IC50 [3] | Ki [3] | IC50 [4] | IC50 [5] | IC50 [6] | IC50 [7] | Ki [7]

N=C(N)NCCCCNC(=N)N.O=S(=O)(O)O [ARCAINE SULFATE]
Not Active: IC50 [1] | IC50 [2] | IC50 (Mu-type opioid receptor) | IC50 (Melanocortin receptor 5) | IC50 [3] | Ki [3] | IC50 [4] | IC50 [5] | IC50 [6] | IC50 [7] | Ki [7]

Cn1cnc([N+](=O)[O-])c1Sc1ncnc2nc[nH]c12 [AZATHIOPRINE]
Not Active: IC50 [1] | IC50 [2] | IC50 (Mu-type opioid receptor) | IC50 (Melanocortin receptor 5) | IC50 [3] | Ki [3] | IC50 [4] | IC50 [5] | IC50 [6] | IC50 [7] | Ki [7]

CC1(C)S[C@@H]2[C@H](NC(=O)[C@H](NC(=O)N3CCNC3=O)c3ccccc3)C(=O)N2[C@H]1C(=O)O [AZLOCILLIN]
Not Active: IC50 [1] | IC50 [2] | IC50 (Mu-type opioid receptor) | IC50 (Melanocortin receptor 5) | IC50 [3] | Ki [3] | IC50 [4] | IC50 [5] | IC50 [6] | IC50 [7] | Ki [7]
